Assay results reported in publication PMC10653547, “Synergistic effect of two antimicrobial peptides, BP203 and MAP-0403 J-2 with conventional antibiotics against colistin-resistant Escherichia coli and Klebsiella pneumoniae clinical isolates” (PLOS ONE, 2023).
Values after ≈ are worked out from the molar mass of the structure shown. Read-outs that look alike come from different tables or passages of the source.

Columns and labels:
[1] = test system: K. pneumoniae ATCC BAA-1706
Procedure: (§1) The MICs of BP203 and MAP-0403 J-2 against clinically colistin-resistant E. coli and K. pneumoniae isolates were determined using the broth microdilution method, according to CLSI recommendations. Briefly, the peptides were subjected to serial dilution in cation-adjusted Mueller-Hinton broth (CAMHB) and added to a 96-well microtiter plate (Wuxi NEST Biotechnology, Wuxi, China). Subsequently, bacterial suspensions from freshly mid-log phase cultures were diluted to 10^6 CFU/mL with CAMHB, and introduced to each well containing the peptides.
(§2) The antibacterial activity of BP203 and MAP-0403 J-2 was evaluated concerning their response to temperature, pH, serum, and salt ions using the MIC assay, following the previously mentioned procedure. The MIC values of peptides were determined against E. coli ATCC29522 and K. pneumoniae ATCC BAA-1706. […] For the pH stability assay, both peptides were incubated in buffers with different pH values (100 mM buffers: glycine-HCl buffer (pH 2.0), sodium acetate buffer (pH 4.0), sodium phosphate buffer (pH 6.0), Tris-HCl buffer (pH 8.0), and glycine-NaOH buffer (pH 10.0)) for 1 h at 37°C. […] For serum stability assay, both peptides were exposed to 25% and 50% fetal bovine serum (FBS) for 1 h at 37°C, followed by a heat activation step for 30 min at 60°C. Afterward, the peptide solutions were serially diluted and MIC was subsequently determined. […] The serial dilutions of peptides were incubated with tested strains for MIC testing. The MICs were observed after 20–24 h of incubation at 37°C.

E. coli ATCC 25922 [2] = test system: E. coli ATCC 25922
Procedure: as §1, §2

[3] = test system: MRC-5 (CCL-171) normal lung fibroblast cells; experiment: Cytotoxicity assay using MTT; assay type: cell-based, human
Procedure: MRC-5 (CCL-171) cell line, a representative of normal lung fibroblast cells, was used to investigate the cytotoxic effects of two AMPs, BP203 and MAP-0403 J-2. The cells were grown in Dulbecco’s Modified Eagle Medium (DMEM, Cytiva Life Sciences, Marlborough, MA, USA), supplemented with 10% fetal bovine serum (FBS), 1% penicillin (10,000 U/mL) and streptomycin (10,000 μg/mL) (Gibco, Waltham, MA, USA). 2×10^4 cells were seeded into each well of a 96-well plate and allowed to adhere for 24 h. Then, these cells were subjected to exposure to a medium containing a prepared two-fold serial dilution of BP203 or MAP-0403 J-2. […] 3-(4,5-Dimethylthiazol-2-yl)-2,5-Diphenyltetrazolium Bromide (MTT) was introduced into each well to achieve a concentration of 0.5 mg/mL followed by 4 h. incubation. Subsequently, formazan crystals were dissolved through the addition of 100 μL of a solubilizing solution composed of 10% SDS in 0.1 N HCl and the developed color was measured using a microtiter plate reader at an optical density (OD) of 570 nm. Cell viability was calculated as follows: (ODsample/ODcontrol) × 100.

[4] = test system: K. pneumoniae ATCC BAA-1706; remark: listed apart in the source
Procedure: as §1
(§3) The antibacterial activity of BP203 and MAP-0403 J-2 was evaluated concerning their response to temperature, pH, serum, and salt ions using the MIC assay, following the previously mentioned procedure. The MIC values of peptides were determined against E. coli ATCC29522 and K. pneumoniae ATCC BAA-1706. […] For the pH stability assay, both peptides were incubated in buffers with different pH values (100 mM buffers: glycine-HCl buffer (pH 2.0), sodium acetate buffer (pH 4.0), sodium phosphate buffer (pH 6.0), Tris-HCl buffer (pH 8.0), and glycine-NaOH buffer (pH 10.0)) for 1 h at 37°C. […] For serum stability assay, both peptides were exposed to 25% and 50% fetal bovine serum (FBS) for 1 h at 37°C, followed by a heat activation step for 30 min at 60°C. Afterward, the peptide solutions were serially diluted and MIC was subsequently determined. For the salt stability assay, each peptide was treated in MHB supplemented with different salts at their physiological concentrations; NaCl (100, 150, and 200 mM), MgCl2 (0.5, 1 and 2 mM), and FeCl3 […]. The serial dilutions of peptides were incubated with tested strains for MIC testing. The MICs were observed after 20–24 h of incubation at 37°C.

E. coli ATCC 25922 [5] = test system: E. coli ATCC 25922; remark: listed apart in the source
Procedure: as §1, §3

[6] = 25% fetal bovine serum, 1 h at 37 °C
[7] = 50% fetal bovine serum, 1 h at 37 °C
[8] = pH 2, 100 mM glycine-HCl buffer, 1 h at 37 °C, neutralized
[9] = pH 4, 100 mM sodium acetate buffer, 1 h at 37 °C, neutralized
[10] = pH 6, 100 mM sodium phosphate buffer, 1 h at 37 °C, neutralized
[11] = pH 8, 100 mM Tris-HCl buffer, 1 h at 37 °C, neutralized
[12] = pH 10, 100 mM glycine-NaOH buffer, 1 h at 37 °C, neutralized
[13] = peptide incubated 1 h at 25 °C (control)

Compound: CC[C@H](C)[C@H](NC(=O)[C@H](CCCCN)NC(=O)[C@H](CCCCN)NC(=O)[C@H](Cc1ccccc1)NC(=O)[C@H](CC(C)C)NC(=O)[C@H](CCCCN)NC(=O)[C@@H](N)CCCCN)C(=O)N[C@@H](CC(C)C)C(=O)N[C@@H](CCCNC(=N)N)C(=O)N[C@@H](Cc1ccc(O)cc1)C(=O)N[C@@H](CC(C)C)C(N)=O [BP203]
- MIC in the presence of physiological salts ([1]; Control, 0): 4 μg/mL
- MIC in the presence of physiological salts ([1]; FeCl3 1 μM): 4 μg/mL
- MIC in the presence of physiological salts ([1]; FeCl3 4 μM): 8 μg/mL
- MIC in the presence of physiological salts ([1]; FeCl3 8 μM): 8 μg/mL
- MIC in the presence of physiological salts ([1]; MgCl2 0.5 mM): 4 μg/mL
- MIC in the presence of physiological salts ([1]; MgCl2 1 mM): 8 μg/mL
- MIC in the presence of physiological salts ([1]; MgCl2 2 mM): 8 μg/mL
- MIC in the presence of physiological salts ([1]; NaCl 100 mM): 8 μg/mL
- MIC in the presence of physiological salts ([1]; NaCl 150 mM): 16 μg/mL
- MIC in the presence of physiological salts ([1]; NaCl 200 mM): 16 μg/mL
- MIC in the presence of physiological salts (E. coli ATCC 25922 [2]; Control, 0): 4 μg/mL
- MIC in the presence of physiological salts (E. coli ATCC 25922 [2]; FeCl3 1 μM): 4 μg/mL
- MIC in the presence of physiological salts (E. coli ATCC 25922 [2]; FeCl3 4 μM): 4 μg/mL
- MIC in the presence of physiological salts (E. coli ATCC 25922 [2]; FeCl3 8 μM): 4 μg/mL
- MIC in the presence of physiological salts (E. coli ATCC 25922 [2]; MgCl2 0.5 mM): 4 μg/mL
- MIC in the presence of physiological salts (E. coli ATCC 25922 [2]; MgCl2 1 mM): 4 μg/mL
- MIC in the presence of physiological salts (E. coli ATCC 25922 [2]; MgCl2 2 mM): 8 μg/mL
- MIC in the presence of physiological salts (E. coli ATCC 25922 [2]; NaCl 100 mM): 8 μg/mL
- MIC in the presence of physiological salts (E. coli ATCC 25922 [2]; NaCl 150 mM): 16 μg/mL
- MIC in the presence of physiological salts (E. coli ATCC 25922 [2]; NaCl 200 mM): 16 μg/mL
- Cell viability at highest concentration ([3]; 200 μg/mL, 24 h): 56.01%
- IC50 ([3]; 24 h exposure): > 200 µg/mL
- MIC after FBS treatment ([4]; 0% FBS (control)): 4 µg/mL (≈ 2.76 µM)
- MIC after FBS treatment [4, 6]: 4 µg/mL (≈ 2.76 µM)
- MIC after FBS treatment [4, 7]: 4 µg/mL (≈ 2.76 µM)
- MIC after pH treatment [4, 8]: 4 μg/mL
- MIC after pH treatment [4, 9]: 4 μg/mL
- MIC after pH treatment [4, 10]: 4 μg/mL
- MIC after pH treatment ([4]; pH 7 (control)): 4 μg/mL
- MIC after pH treatment [4, 11]: 4 μg/mL
- MIC after pH treatment [4, 12]: 4 μg/mL
- MIC after temperature treatment [4, 13]: 4 µg/mL (≈ 2.76 µM)
- MIC after temperature treatment ([4]; peptide incubated 1 h at 37 °C): 4 µg/mL (≈ 2.76 µM)
- MIC after temperature treatment ([4]; peptide incubated 1 h at 50 °C): 4 µg/mL (≈ 2.76 µM)
- MIC after temperature treatment ([4]; peptide incubated 1 h at 70 °C): 4 µg/mL (≈ 2.76 µM)
- MIC after temperature treatment ([4]; peptide incubated 1 h at 90 °C): 4 µg/mL (≈ 2.76 µM)
- MIC after FBS treatment (E. coli ATCC 25922 [5]; 0% FBS (control)): 4 µg/mL (≈ 2.76 µM)
- MIC after FBS treatment (E. coli ATCC 25922 [5]; [6]): 4 µg/mL (≈ 2.76 µM)
- MIC after FBS treatment (E. coli ATCC 25922 [5]; [7]): 8 µg/mL (≈ 5.52 µM)
- MIC after pH treatment (E. coli ATCC 25922 [5]; [8]): 4 μg/mL
- MIC after pH treatment (E. coli ATCC 25922 [5]; [9]): 4 μg/mL
- MIC after pH treatment (E. coli ATCC 25922 [5]; [10]): 4 μg/mL
- MIC after pH treatment (E. coli ATCC 25922 [5]; pH 7 (control)): 4 μg/mL
- MIC after pH treatment (E. coli ATCC 25922 [5]; [11]): 4 μg/mL
- MIC after pH treatment (E. coli ATCC 25922 [5]; [12]): 4 μg/mL
- MIC after temperature treatment (E. coli ATCC 25922 [5]; [13]): 4 µg/mL (≈ 2.76 µM)
- MIC after temperature treatment (E. coli ATCC 25922 [5]; peptide incubated 1 h at 37 °C): 4 µg/mL (≈ 2.76 µM)
- MIC after temperature treatment (E. coli ATCC 25922 [5]; peptide incubated 1 h at 50 °C): 4 µg/mL (≈ 2.76 µM)
- MIC after temperature treatment (E. coli ATCC 25922 [5]; peptide incubated 1 h at 70 °C): 4 µg/mL (≈ 2.76 µM)
- MIC after temperature treatment (E. coli ATCC 25922 [5]; peptide incubated 1 h at 90 °C): 4 µg/mL (≈ 2.76 µM)
